Assay results published in patent US20250243196A1, “CITRON KINASE INHIBITORS” (The Cleveland Clinic Foundation, priority 2021, published 2025).

What follows are compounds tested against Citron kinase (Homo sapiens (Human), UniProt O14578) (assay: Radiometric citron kinase assay (Eurofins Cat #16-040KP)). Details: mean of at least two independent assays; read-out: Radiometric CitK IC50.
Assay type: biochemical
Excerpt: In some embodiments, the step of contacting the sample with the compound comprises administering the compound to a subject (e.g., a subject) suffering from cancer. Methods of determining kinase inhibition are well known in the art. For example, kinase activity of an enzyme and the inhibitory capacity of a test compound can be determined by measuring enzyme specific phosphorylation of a substrate. Commercial assays and kits can be employed. For example, kinase inhibition can be determined using a radiometric binding assay, such as using KinaseProfiler™ technology (Eurofins Discovery). This assay method directly detects product formation without the use of modified substrates or coupling enzymes. Test compounds are incubated with kinase, substrate, required cofactors and radioisotope labeled ATP. Following incubation, unreacted radioactive ATP is removed by washing and incorporation of the radiolabeled phosphate into the kinase substrate is assayed to detect phosphoryltransferase activity, which is directly proportional to the amount of phosphorylated substrate. Inhibition of the kinase by a kinase inhibitor prevents phosphorylation of the substrate and thereby limits the incorporation of radiolabeled phosphate. Such an assay is compatible with a microwell assay format, allowing simultaneous determination of IC50 of multiple compounds.
Compounds were screened for biochemical kinase activity (Eurofins Discovery, France) using one of two assays. […] All values in Table 1 are the mean of at least two independent assays.

Chain of Citron kinase (O14578 whole entry): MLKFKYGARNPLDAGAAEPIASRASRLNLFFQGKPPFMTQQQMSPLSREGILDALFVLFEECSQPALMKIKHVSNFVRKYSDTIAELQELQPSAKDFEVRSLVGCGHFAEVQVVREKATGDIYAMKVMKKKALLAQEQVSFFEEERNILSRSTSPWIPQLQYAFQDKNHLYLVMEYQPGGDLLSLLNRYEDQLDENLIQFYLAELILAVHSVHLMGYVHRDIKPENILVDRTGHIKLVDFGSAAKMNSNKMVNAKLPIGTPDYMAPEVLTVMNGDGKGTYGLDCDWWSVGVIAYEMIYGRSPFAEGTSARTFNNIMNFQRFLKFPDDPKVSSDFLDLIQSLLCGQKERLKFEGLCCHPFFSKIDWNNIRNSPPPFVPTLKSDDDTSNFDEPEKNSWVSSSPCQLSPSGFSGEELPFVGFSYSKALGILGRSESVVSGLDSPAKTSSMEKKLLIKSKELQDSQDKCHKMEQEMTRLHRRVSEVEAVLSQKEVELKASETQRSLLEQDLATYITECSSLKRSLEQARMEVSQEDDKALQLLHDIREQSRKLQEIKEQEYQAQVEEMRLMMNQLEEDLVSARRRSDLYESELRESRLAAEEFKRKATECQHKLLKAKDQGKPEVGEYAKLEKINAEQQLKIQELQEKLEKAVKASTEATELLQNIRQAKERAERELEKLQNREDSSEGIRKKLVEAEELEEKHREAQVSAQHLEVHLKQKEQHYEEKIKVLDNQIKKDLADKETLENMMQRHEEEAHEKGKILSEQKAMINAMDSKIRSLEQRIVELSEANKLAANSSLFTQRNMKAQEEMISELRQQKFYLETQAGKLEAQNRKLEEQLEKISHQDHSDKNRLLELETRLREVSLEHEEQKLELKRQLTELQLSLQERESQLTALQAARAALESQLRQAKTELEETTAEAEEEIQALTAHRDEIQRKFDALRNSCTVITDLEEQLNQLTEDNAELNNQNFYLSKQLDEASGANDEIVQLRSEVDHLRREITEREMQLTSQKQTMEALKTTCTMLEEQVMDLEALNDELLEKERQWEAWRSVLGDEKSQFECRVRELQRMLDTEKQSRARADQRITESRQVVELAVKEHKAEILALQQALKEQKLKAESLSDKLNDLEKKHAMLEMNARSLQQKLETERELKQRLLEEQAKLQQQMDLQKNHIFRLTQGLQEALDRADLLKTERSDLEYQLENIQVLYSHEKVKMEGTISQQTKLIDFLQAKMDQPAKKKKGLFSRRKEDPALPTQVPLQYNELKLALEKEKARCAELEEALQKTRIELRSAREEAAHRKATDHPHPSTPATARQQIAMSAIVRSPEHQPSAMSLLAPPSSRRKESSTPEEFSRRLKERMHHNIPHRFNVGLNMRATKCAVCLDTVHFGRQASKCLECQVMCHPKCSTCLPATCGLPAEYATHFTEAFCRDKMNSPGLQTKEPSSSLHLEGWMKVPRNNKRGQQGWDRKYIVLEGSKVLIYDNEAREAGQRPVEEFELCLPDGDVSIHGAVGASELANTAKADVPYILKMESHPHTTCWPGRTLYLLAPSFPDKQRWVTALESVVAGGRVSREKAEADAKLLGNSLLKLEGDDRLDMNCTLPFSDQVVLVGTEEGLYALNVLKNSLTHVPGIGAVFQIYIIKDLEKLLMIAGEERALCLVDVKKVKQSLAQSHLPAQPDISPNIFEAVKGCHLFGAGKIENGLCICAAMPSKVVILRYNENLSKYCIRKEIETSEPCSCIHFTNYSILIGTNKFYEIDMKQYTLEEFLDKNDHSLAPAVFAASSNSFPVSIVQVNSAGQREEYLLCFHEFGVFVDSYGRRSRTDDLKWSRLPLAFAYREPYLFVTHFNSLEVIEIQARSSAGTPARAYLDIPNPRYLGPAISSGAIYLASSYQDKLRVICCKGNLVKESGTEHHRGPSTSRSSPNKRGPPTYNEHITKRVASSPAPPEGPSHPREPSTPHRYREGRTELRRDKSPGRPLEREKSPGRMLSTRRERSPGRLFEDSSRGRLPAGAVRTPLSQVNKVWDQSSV

In order of rising IC50:
1. Cc1cc(NC(=O)[C@H](N)CC(C)(C)C)ccc1-c1ccnc2[nH]ccc12 [Compound F-60, (2R)-2-Amino-4,4-dimethyl-N-[3-methyl-4-(1H-pyrrolo[2,3-b]pyridin-4-yl)phenyl]pentanamide]  0.0078 µM
2. Cc1cc2c(-c3ccc(NC(=O)[C@H](N)CC(C)(C)C)cc3)ccnc2[nH]1 [Compound F-52, (2R)-2-Amino-4,4-dimethyl-N-[4-(2-methyl-1H-pyrrolo[2,3-b]pyridin-4-yl)phenyl]pentanamide]  0.0091 µM
3. Cc1c(-c2ccnc3[nH]ccc23)ccc(NC(=O)[C@H](N)CC(C)C)c1F [Compound F-72, (2R)-2-Amino-N-[2-fluoro-3-methyl-4-(1H-pyrrolo[2,3-b]pyridin-4-yl)phenyl]-4-methyl-pentanamide]  0.017 µM
4. CC(C)(C)[C@@H](N)C(=O)Nc1ccc(-c2ccnc3[nH]c(C4CC4)cc23)cc1 [Compound F-54, (2R)-2-Amino-N-[4-(2-cyclopropyl-1H-pyrrolo[2,3-b]pyridin-4-yl)phenyl]-3,3-dimethyl-butanamide]  0.0351 µM
5. CC(C)(O)[C@@H](N)C(=O)Nc1ccc(-c2ccnc3[nH]ccc23)cc1 [Compound F-31, (2R)-2-Amino-3-hydroxy-3-methyl-N-[4-(1H-pyrrolo[2,3-b]pyridin-4-yl)phenyl]butanamide]  0.0524 µM
6. CC(C)(C)[C@@H](N)C(=O)Nc1ccc(-c2ccnc3[nH]ccc23)c(F)c1 [Compound F-66, (2R)-2-Amino-N-[3-fluoro-4-(1H-pyrrolo[2,3-b]pyridin-4-yl)phenyl]-3,3-dimethyl-butanamide]  0.0577 µM
7. Cc1cc2c(-c3ccc(NC(=O)[C@H](N)C(C)(C)C)cc3)ccnc2[nH]1 [Compound F-50, (2R)-2-Amino-3,3-dimethyl-N-[4-(2-methyl-1H-pyrrolo[2,3-b]pyridin-4-yl)phenyl]butanamide]  0.059 µM
8. CC(C)(C)[C@@H](N)C(=O)Nc1ccc(-c2ccnc3[nH]ccc23)cc1F [Compound F-71, (2R)-2-Amino-N-[2-fluoro-4-(1H-pyrrolo[2,3-b]pyridin-4-yl)phenyl]-3,3-dimethyl-butanamide]  0.0646 µM
9. N[C@H](CCC(F)(F)F)C(=O)Nc1ccc(-c2ccnc3[nH]ccc23)cc1 [Compound F-24, (2R)-2-Amino-5,5,5-trifluoro-N-[4-(1H-pyrrolo[2,3-b]pyridin-4-yl)phenyl]pentanamide]  0.0667 µM
10. CCC[C@@H](N)C(=O)Nc1ccc(-c2ccnc3[nH]ccc23)cc1 [Compound F-14, (2R)-2-Amino-N-[4-(1H-pyrrolo[2,3-b]pyridin-4-yl)phenyl]pentanamide]  0.0696 µM
11. CC[C@H](C)[C@H](N)C(=O)Nc1ccc(-c2ccnc3[nH]ccc23)cc1 [Compound F-10, (2S,3S)-2-Amino-3-methyl-N-[4-(1H-pyrrolo[2,3-b]pyridin-4-yl)phenyl]pentanamide]  0.0919 µM
12. CC(C)(C)[C@@H](N)C(=O)Nc1ccc(-c2ccnc3[nH]c(C(F)(F)F)cc23)cc1 [Compound F-56, (2R)-2-Amino-3,3-dimethyl-N-[4-[2-(trifluoromethyl)-1H-pyrrolo[2,3-b]pyridin-4-yl]phenyl]butanamide]  0.108 µM
13. NC(C(=O)Nc1ccc(-c2ccnc3[nH]ccc23)cc1)C1(C(F)(F)F)CC1 (centres unmarked) [Compound F-23, 2-Amino-N-[4-(1H-pyrrolo[2,3-b]pyridin-4-yl)phenyl]-2-[1-(trifluoromethyl)cyclopropyl]acetamide]  0.172 µM
14. CCN[C@H](CC(C)C)C(=O)Nc1ccc(-c2ccnc3[nH]ccc23)cc1 [Compound F-43, (2R)-2-(Ethylamino)-4-methyl-N-[4-(1H-pyrrolo[2,3-b]pyridin-4-yl)phenyl]pentanamide]  0.209 µM
15. CC(O)[C@@H](N)C(=O)Nc1ccc(-c2ccnc3[nH]ccc23)cc1 (stereo partly drawn) [Compound F-30, (2R)-2-Amino-3-hydroxy-N-[4-(1H-pyrrolo[2,3-b]pyridin-4-yl)phenyl]butanamide]  0.218 µM
16. CC[C@@H](C)[C@@H](N)C(=O)Nc1ccc(-c2ccnc3[nH]ccc23)cc1 [Compound F-11, (2R,3R)-2-Amino-3-methyl-N-[4-(1H-pyrrolo[2,3-b]pyridin-4-yl)phenyl]pentanamide]  0.315 µM
17. Cc1cc2c(-c3ccc(NC(=O)[C@@H](N)C(C)(C)C)cc3)ccnc2[nH]1 [Compound F-51, (2S)-2-Amino-3,3-dimethyl-N-[4-(2-methyl-1H-pyrrolo[2,3-b]pyridin-4-yl)phenyl]butanamide]  0.366 µM
18. NC(CC(F)(F)F)C(=O)Nc1ccc(-c2ccnc3[nH]ccc23)cc1 (centres unmarked) [Compound F-22, 2-Amino-4,4,4-trifluoro-N-[4-(1H-pyrrolo[2,3-b]pyridin-4-yl)phenyl]butanamide]  0.554 µM
19. CC(C)C[C@@H](NC1CC1)C(=O)Nc1ccc(-c2ccnc3[nH]ccc23)cc1 [Compound F-44, (2R)-2-(Cyclopropylamino)-4-methyl-N-[4-(1H-pyrrolo[2,3-b]pyridin-4-yl)phenyl]pentanamide]  0.555 µM
20. CC(C)C[C@@H](NCC1CC1)C(=O)Nc1ccc(-c2ccnc3[nH]ccc23)cc1 [Compound F-45, (2R)-2-(Cyclopropymethylamino)-4-methyl-N-[4-[1H-pyrrolo[2,3-b]pyridin-4-yl]phenyl]pentanamide]  0.683 µM
21. Cc1cc(NC(=O)[C@H](N)CC(C)C)c(F)cc1-c1ccnc2[nH]ccc12 [Compound F-73, (2R)-2-Amino-N-[2-fluoro-5-methyl-4-(1H-pyrrolo[2,3-b]pyridin-4-yl)phenyl]-4-methyl-pentanamide]  0.694 µM
22. CNCC(=O)Nc1ccc(-c2ccnc3[nH]ccc23)cc1 [Compound F-2, N-(4-(1H-pyrrolo[2,3-b]pyridin-4-yl)phenyl)-2-(methylamino)acetamide]  0.728 µM
23. CC(O)[C@H](N)C(=O)Nc1ccc(-c2ccnc3[nH]ccc23)cc1 (stereo partly drawn) [Compound F-29, (2S)-2-Amino-3-hydroxy-N-[4-(1H-pyrrolo[2,3-b]pyridin-4-yl)phenyl]butanamide]  0.778 µM
24. C[C@@H](N)C(=O)Nc1ccc(-c2ccnc3[nH]ccc23)cc1 [Compound F-5, (2R)-2-Amino-N-[4-(1H-pyrrolo[2,3-b]pyridin-4-yl)phenyl]propenamide]  0.806 µM
25. CN(C)CC(=O)Nc1ccc(-c2ccnc3[nH]ccc23)cc1 [Compound F-3, 2-(Dimethylamino)-N-[4-(1H-pyrrolo[2,3-b]pyridin-4-yl)phenyl]acetamide]  1.06 µM
26. COCCN[C@H](CC(C)C)C(=O)Nc1ccc(-c2ccnc3[nH]ccc23)cc1 [Compound F-46, (2R)-2-(2-Methoxyethylamino)-4-methyl-N-[4-(1H-pyrrolo[2,3-b]pyridin-4-yl)phenyl]pentanamide]  1.26 µM
27. COCCC(N)C(=O)Nc1ccc(-c2ccnc3[nH]ccc23)cc1 (centres unmarked) [Compound F-26, 2-Amino-4-methoxy-N-[4-(1H-pyrrolo[2,3-b]pyridin-4-yl)phenyl]butanamide]  2.47 µM
28. C[C@H](N)C(=O)Nc1ccc(-c2ccnc3[nH]ccc23)cc1 [Compound F-4, (2S)-2-Amino-N-[4-(1H-pyrrolo[2,3-b]pyridin-4-yl)phenyl]propenamide]  3 µM
29. CC(C)C[C@@H](NCC(F)(F)F)C(=O)Nc1ccc(-c2ccnc3[nH]ccc23)cc1 [Compound F-47, (2R)-4-Methyl-N-[4-(1H-pyrrolo[2,3-b]pyridin-4-yl)phenyl]-2-(2,2,2-trifluoroethylamino)pentanamide]  3 µM
